Assay results published in patent publication US7745422B2, “Bisphosphonate compounds and methods for bone resorption diseases, cancer, bone pain, immune disorders, and infectious diseases” (The Board of Trustees of the University of Illinois, priority 2004, dated 2010).
Like-named read-outs stand apart in the source and are kept apart here.

Assays:
Dictyostelium discoideum = test: D. discoideum cell growth inhibition; type: cell-based
Text: (§1) We then investigated the activity of each compound in inhibiting the FPPS from L. major, in Dictyostelium discoideum growth inhibition and in γδ T cell activation. We used the FPPS from L. major since this enzyme is the putative bisphosphonate target in several trypanosomatid species.

Vγ2Vδ2 T cells = test: gammadelta T cell stimulation (TNF-α release assay); type: cell-based, human
Text: as §1

human FPPS = molecular target: T1, human FPPS (Homo sapiens, UniProt P14324); test: human FPPS assay; type: biochemical; conditions: Table 4; read-out: (2) human FPPS IC50
T1 sequence (P14324 1-419): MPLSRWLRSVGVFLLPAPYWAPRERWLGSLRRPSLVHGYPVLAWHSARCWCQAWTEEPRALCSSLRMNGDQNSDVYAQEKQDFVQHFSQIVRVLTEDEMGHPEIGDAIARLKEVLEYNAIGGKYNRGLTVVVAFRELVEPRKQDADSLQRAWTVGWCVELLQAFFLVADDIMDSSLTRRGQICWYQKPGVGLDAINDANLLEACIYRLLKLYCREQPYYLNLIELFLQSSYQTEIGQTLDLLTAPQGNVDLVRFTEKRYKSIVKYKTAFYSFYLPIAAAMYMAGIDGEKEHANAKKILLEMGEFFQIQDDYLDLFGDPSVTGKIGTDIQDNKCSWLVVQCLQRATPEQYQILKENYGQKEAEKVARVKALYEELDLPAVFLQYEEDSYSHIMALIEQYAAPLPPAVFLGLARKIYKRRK

[1] = Table 4, read-out: (1) D. discoideum IC50
[2] = Table 4, read-out: (3) gammadelta T cell stimulation EC50
[3] = Dictyostelium discoideum, read-out: (1) D. discoideum IC50
[4] = Homo sapiens, T-cell, read-out: (3) gammadelta T cell stimulation EC50
[5] = Table 3, additional testing, read-out: gammadelta T cell stimulation EC50
[6] = cell growth inhibition, Table 1 and text, read-out: D. discoideum IC50
[7] = TNF-α release, Table 1 and text, read-out: gammadelta T cell stimulation, EC50

| SMILES | IC50 (Dictyostelium discoideum; [1]) [µM] | EC50 (Vγ2Vδ2 T cells; [2]) [µM] | also measured |
| --- | --- | --- | --- |
| CCCCCCc1ccc[n+](CC(P(=O)([O-])O)P(=O)(O)O)c1 (centres unmarked) [Compound 598] | 1.7 | 35 | – |
| O=P([O-])(O)C(O)(C[n+]1cccc(Cl)c1)P(=O)(O)O (centres unmarked) [Compound 524] | – | – | IC50 (Dictyostelium discoideum; [3]): 2.4 µM; EC50 (Vγ2Vδ2 T cells; [4]): 10 µM |
| Cc1ccc2ccc[n+](CC(O)(P(=O)([O-])O)P(=O)(O)O)c2c1 (centres unmarked) [Compound 457] | 14 | 1900 | – |
| CCCOc1cccc(-c2ccc[n+](CC(P(=O)([O-])O)P(=O)(O)O)c2)c1 (centres unmarked) [Compound 577] | 4.1 | 21 | – |
| O=P([O-])(O)C(C[n+]1cccc(S(=O)(=O)N2CCCC2)c1)P(=O)(O)O (centres unmarked) [Compound 502] | 100 | – | (3) gammadelta T cell stimulation EC50 (Vγ2Vδ2 T cells; Table 4): inactive |
| O=P([O-])(O)C(C[n+]1cccc(F)c1)P(=O)(O)O (centres unmarked) [Compound 477] | 2.7 | – | EC50 (Vγ2Vδ2 T cells; [5]): 1.8 µM; IC50 (human FPPS): 1.4 µM |
| CN(C)c1cc[n+](CC(O)(P(=O)([O-])O)P(=O)(O)O)cc1 (centres unmarked) [Compound 451] | 31 | – | (3) gammadelta T cell stimulation EC50 (Vγ2Vδ2 T cells; Table 4): inactive; IC50 (human FPPS): 280 µM |
| O=P([O-])(O)C(C[n+]1cccc(I)c1)P(=O)(O)O (centres unmarked) [Compound 542] | 1.7 | 12 | IC50 (human FPPS): 1.2 µM |
| COc1ccc[n+](CC(O)(P(=O)([O-])O)P(=O)(O)O)c1 (centres unmarked) [Compound 479] | – | 15 | – |
| O=P([O-])(O)C(O)(C[n+]1ccc(Cc2ccccc2)cc1)P(=O)(O)O (centres unmarked) [Compound 443] | 12 | 230 | IC50 (Dictyostelium discoideum; [6]): 12 µM; activity in gammadelta T cell stimulation (Vγ2Vδ2 T cells; TNF-α release): poor activity; EC50 (Vγ2Vδ2 T cells; [7]): 230 µM; EC50 (Vγ2Vδ2 T cells; [5]): 187 µM |
| Cc1cc(C)c[n+](CC(O)(P(=O)([O-])O)P(=O)(O)O)c1 (centres unmarked) [Compound 459] | 27 | 14 | – |
| O=C(c1ccccc1)c1ccc[n+](CC(P(=O)([O-])O)P(=O)(O)O)c1 (centres unmarked) [Compound 530] | 190 | 6500 | – |
| O=P([O-])(O)C(O)(C[n+]1cccc(I)c1)P(=O)(O)O (centres unmarked) [Compound 582] | 3.5 | – | IC50 (human FPPS): 1.6 µM |
| COc1cc[n+](CC(O)(P(=O)([O-])O)P(=O)(O)O)cc1 (centres unmarked) [Compound 456] | 27 | 19 | – |
| O=P([O-])(O)C(O)(C[n+]1cccc(-c2ccc(F)cc2)c1)P(=O)(O)O (centres unmarked) [Compound 462] | 2.7 | 15 | – |
| O=P([O-])(O)C(O)(C[n+]1ccc2ccccc2c1)P(=O)(O)O (centres unmarked) [Compound 398] | 20 | 41 | IC50 (Dictyostelium discoideum; [6]): 20 µM; EC50 (Vγ2Vδ2 T cells; [7]): 41 µM; EC50 (Vγ2Vδ2 T cells; [5]): 40.6 µM |
| O=P([O-])(O)C(C[n+]1ccc2ccccc2c1)P(=O)(O)O (centres unmarked) [Compound 473] | 20 | – | EC50 (Vγ2Vδ2 T cells; [5]): 20.1 µM |
| CC([n+]1ccccc1)C(O)(P(=O)([O-])O)P(=O)(O)O (single isomer, unassigned) [Compound 591] | 38 | – | IC50 (human FPPS): 29 µM |
| O=P([O-])(O)C(C[n+]1cccc(Cl)c1)P(=O)(O)O (centres unmarked) [Compound 526] | 2.1 | 8.6 | IC50 (human FPPS): 1.2 µM |
| CCCCCCCCc1ccc[n+](CC(P(=O)([O-])O)P(=O)(O)O)c1 (centres unmarked) [Compound 605] | – | 6 | – |

| SMILES | IC50 (Dictyostelium discoideum; [1]) [µM] | EC50 (Vγ2Vδ2 T cells; [2]) [µM] | also measured |
| --- | --- | --- | --- |
| CCCCOc1ccc(-c2ccc[n+](CC(O)(P(=O)([O-])O)P(=O)(O)O)c2)cc1 (centres unmarked) [Compound 600] | 11 | 290 | – |
| O=P([O-])(O)C(O)(C[n+]1ccc(-c2ccncc2)cc1)P(=O)(O)O (centres unmarked) [Compound 471] | – | – | (1) D. discoideum IC50 (Dictyostelium discoideum; Table 4): inactive; (3) gammadelta T cell stimulation EC50 (Vγ2Vδ2 T cells; Table 4): inactive |
| CC(C)=CCc1ccc[n+](CC(P(=O)([O-])O)P(=O)(O)O)c1 (centres unmarked) [Compound 599] | 1.7 | 69 | – |
| O=P([O-])(O)C(C[n+]1ccccc1F)P(=O)(O)O (centres unmarked) [Compound 521] | 570 | 790 | – |
| CC(C)CCc1ccc[n+](CC(P(=O)([O-])O)P(=O)(O)O)c1 (centres unmarked) [Compound 603] | – | 22 | – |
| CCc1ccc[n+](CC(O)(P(=O)([O-])O)P(=O)(O)O)c1 (centres unmarked) [Compound 444] | 5.6 | 5.1 | IC50 (Dictyostelium discoideum; [6]): 5.6 µM; EC50 (Vγ2Vδ2 T cells; [7]): 5.1 µM; EC50 (Vγ2Vδ2 T cells; [5]): 2.8 µM |
| Cc1cc[n+](CC(O)(P(=O)([O-])O)P(=O)(O)O)cc1C (centres unmarked) [Compound 460] | 14 | 13 | – |
| O=P([O-])(O)C(O)(CC[n+]1ccccc1)P(=O)(O)O (centres unmarked) [Compound 455] | 27 | 25 | – |
| O=P([O-])(O)C(O)(C[n+]1cccc(O)c1)P(=O)(O)O (centres unmarked) [Compound 595] | 49 | 210 | IC50 (human FPPS): 2.7 µM |
| CCCCc1ccc[n+](CC(P(=O)([O-])O)P(=O)(O)O)c1 (centres unmarked) [Compound 476] | 2.3 | – | EC50 (Vγ2Vδ2 T cells; [5]): 2 µM |
| CC(C)=CCCC(C)=CCc1ccc[n+](CC(P(=O)([O-])O)P(=O)(O)O)c1 (centres unmarked) [Compound 601] | 2.4 | 220 | – |
| O=P([O-])(O)C(C[n+]1ccccc1)P(=O)(O)O (centres unmarked) [Compound 470] | 3.5 | – | EC50 (Vγ2Vδ2 T cells; [5]): 3.3 µM |
| O=P([O-])(O)C(C[n+]1ccc(C(F)(F)F)cc1)P(=O)(O)O (centres unmarked) [Compound 485] | 58 | 370 | – |
| CCc1ccc[n+](CC(P(=O)([O-])O)P(=O)(O)O)c1 (centres unmarked) [Compound 475] | 4.1 | – | EC50 (Vγ2Vδ2 T cells; [5]): 2.8 µM |
| O=P([O-])(O)C(C[n+]1ccc(Cc2ccccc2)cc1)P(=O)(O)O (centres unmarked) [Compound 481] | 3.5 | – | EC50 (Vγ2Vδ2 T cells; [5]): 83.4 µM |
| O=P([O-])(O)C(O)(C[n+]1cccc(-c2cccc(-c3ccccc3)c2)c1)P(=O)(O)O (centres unmarked) [Compound 364] | – | > 1000 | EC50 (Vγ2Vδ2 T cells; [7]): > 1000 µM; IC50 (human FPPS): 37 µM |
| O=P([O-])(O)C(C[n+]1cc(F)cc(F)c1)P(=O)(O)O (centres unmarked) [Compound 523] | 4.6 | 11 | – |
| COc1cccc(-c2ccc[n+](CC(P(=O)([O-])O)P(=O)(O)O)c2)c1 (centres unmarked) [Compound 578] | 4 | 20 | – |
| O=P([O-])(O)C(O)(C[n+]1ccc(-c2ccccc2)cc1)P(=O)(O)O (centres unmarked) [Compound 478] | 760 | – | (3) gammadelta T cell stimulation EC50 (Vγ2Vδ2 T cells; Table 4): inactive |
| O=P([O-])(O)C(O)(C[n+]1cc(F)cc(-c2ccccc2)c1)P(=O)(O)O (centres unmarked) [Compound 534] | – | 16 | – |

| SMILES | IC50 (Dictyostelium discoideum; [1]) [µM] | EC50 (Vγ2Vδ2 T cells; [2]) [µM] | also measured |
| --- | --- | --- | --- |
| O=P([O-])(O)C(C[n+]1cccc(Br)c1)P(=O)(O)O (centres unmarked) [Compound 483] | – | – | IC50 (Dictyostelium discoideum; [3]): 2.5 µM; EC50 (Vγ2Vδ2 T cells; Homo sapiens, T-cell, read-out: gammadelta T cell stimulation EC50): 2.9 µM |
| O=P([O-])(O)C(O)(C[n+]1ccc(C(F)(F)F)cc1)P(=O)(O)O (centres unmarked) [Compound 513] | 1500 | 550 | – |
| CCCCOc1ccc(-c2ccc[n+](CC(P(=O)([O-])O)P(=O)(O)O)c2)cc1 (centres unmarked) [Compound 586] | 6 | 90 | – |
| O=P([O-])(O)C(C[n+]1cccc(-c2ccccc2)c1)P(=O)(O)O (centres unmarked) [Compound 472] | 2.5 | – | EC50 (Vγ2Vδ2 T cells; [5]): 2.1 µM |
| O=P([O-])(O)C(C[n+]1cccc(Cc2ccccc2)c1)P(=O)(O)O (centres unmarked) [Compound 480] | 3 | – | EC50 (Vγ2Vδ2 T cells; [5]): 68.7 µM |
| O=Cc1ccc[n+](CC(P(=O)([O-])O)P(=O)(O)O)c1 (centres unmarked) [Compound 525] | 8.4 | 11 | – |
| CP(=O)([O-])C(C[n+]1cccc(-c2ccccc2)c1)P(C)(=O)O (centres unmarked) [Compound 556] | – | 2300 | (1) D. discoideum IC50 (Dictyostelium discoideum; Table 4): inactive |
| O=P([O-])(O)C(O)(C[n+]1cccc(C(F)(F)F)c1)P(=O)(O)O (centres unmarked) [Compound 520] | – | – | IC50 (Dictyostelium discoideum; [3]): 6.3 µM; EC50 (Vγ2Vδ2 T cells; [4]): 14 µM |
| CCCCOc1cccc(-c2ccc[n+](CC(P(=O)([O-])O)P(=O)(O)O)c2)c1 (centres unmarked) [Compound 579] | 6 | 20 | – |
| O=Cc1cccc(-c2ccc[n+](CC(P(=O)([O-])O)P(=O)(O)O)c2)c1 (centres unmarked) [Compound 532] | 4.1 | 41 | – |
| CC([n+]1ccccc1)C(O)(P(=O)([O-])O)P(=O)(O)O (single isomer, unassigned) [Compound 583] | 14 | 50 | – |
| Cc1ccc2c(ccc[n+]2CC(O)(P(=O)([O-])O)P(=O)(O)O)c1 (centres unmarked) [Compound 452] | 73 | 250 | – |
| Cc1ccc[n+](CC(P(=O)([O-])O)P(=O)(O)O)c1 (centres unmarked) [Compound 474] | 4.4 | – | EC50 (Vγ2Vδ2 T cells; [5]): 2.4 µM |
| O=P([O-])(O)C(O)(C[n+]1cccc(-c2ccc(C(F)(F)F)cc2)c1)P(=O)(O)O (centres unmarked) [Compound 449] | 4 | 12 | – |
| O=P([O-])(O)C(O)(C[n+]1cccc2cc(Cl)ccc21)P(=O)(O)O (centres unmarked) [Compound 447] | 72 | 53 | IC50 (Dictyostelium discoideum; [6]): 72 µM; EC50 (Vγ2Vδ2 T cells; [7]): 53 µM |
| O=P([O-])(O)C(C[n+]1cccc(-c2ccc(F)c(F)c2)c1)P(=O)(O)O (centres unmarked) [Compound 533] | – | 19 | – |
| O=P([O-])(O)C(C[n+]1ccc(-n2nnc3ccccc32)cc1)P(=O)(O)O (centres unmarked) [Compound 531] | 20 | – | (3) gammadelta T cell stimulation EC50 (Vγ2Vδ2 T cells; Table 4): inactive |
| CCCCC#Cc1ccc[n+](CC(P(=O)([O-])O)P(=O)(O)O)c1 (centres unmarked) [Compound 597] | – | 58 | IC50 (human FPPS): 1.9 µM |
| CC(C)C#Cc1ccc[n+](CC(P(=O)([O-])O)P(=O)(O)O)c1 (centres unmarked) [Compound 602] | 2.04 | 18 | – |
